Data: US20110006261A1, “USE OF AN OZONE/OXYGEN MIXTURE AS PRIMARY ANTICANCER THERAPY THROUGH INTRAPERITONEAL INSUFFLATION” (priority 2007, published 2011)
Where “and” joins values, the source holds several entries; their conditions need not be identical. Equal values may be shown once.

Tests used:
[1] = Adverse effects: intraabdominal pressure, body weight, clinical signs
auricular VX2 carcinoma = experiment: Therapy of auricular VX2 carcinoma in rabbits by intraperitoneal gas insufflation (survival, tumor clearance); type: in vivo, New Zealand White (NZW) rabbit
[2] = inhaled, mice; cited from earlier work

O=O [O2, pure medical oxygen]
maximal drop of mean body weight ([1]; compared to mean body weight on day 14): 5.0%
day of tumor clearance (auricular VX2 carcinoma; day after tumor cell inoculation): 68 days and 85 days
mean survival time (auricular VX2 carcinoma; observation period 90 days after tumor cell inoculation): 51 days
number of rabbits with tumor remission (auricular VX2 carcinoma; until day 90): two

O=[O+][O-] [ozone]
adverse effect grade (weight loss) [2]: grade II
weight loss [2]: up to 14%

medical ozone/oxygen (O3/O2) gas mixture
severe side effects (sustained body weight reduction, gas embolism, fever, diarrhea, peritonitis) ([1]; rabbit, in vivo): no severe side effects
